One block for each molecule: values may come before it.
What was measured:
[1] = molecular target: T1, horseradish peroxidase Type VIA (Armoracia rusticana, UniProt P00433); assay: Enhanced chemiluminescent assay for luminol with 4-biphenylboronic acid (Example 8b); assay type: biochemical; conditions: 10µl enhancer (1:20 dilution of 1mg/ml)
T1 construct: purchased Sigma Chemical Co
T1 sequence (P00433 31-338): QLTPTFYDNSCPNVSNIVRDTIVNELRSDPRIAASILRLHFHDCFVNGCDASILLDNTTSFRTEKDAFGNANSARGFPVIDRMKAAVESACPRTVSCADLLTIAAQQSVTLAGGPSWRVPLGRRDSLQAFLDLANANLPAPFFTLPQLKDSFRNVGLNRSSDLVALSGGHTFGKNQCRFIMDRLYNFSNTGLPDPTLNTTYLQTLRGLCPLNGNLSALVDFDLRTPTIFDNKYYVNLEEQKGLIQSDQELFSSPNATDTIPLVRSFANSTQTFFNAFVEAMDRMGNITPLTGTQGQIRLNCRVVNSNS
Method: The assay reagent consisted of the following reagents: 10µl 4-biphenylboronic acid (1:20 dilution of a 1mg/ml stock in DMSO), 10µl horseradish peroxidase (1:500,000 dilution of a lmg/ml stock Type VIA in 0.1 mol/l Tris buffer pH 8.6) and 100µl hydrogen peroxide solution (31µl 30% w/v hydrogen peroxide diluted in 100ml Tris buffer). These were mixed together and the light emission measured. A 10µl sample of a luminol solution (dilutions of a 0.25g/l in 0.1 mol/l Tris buffer pH 8.6 stock) was added, the contents of the assay tube mixed and the light emission recorded.
From Table 10 it can be seen that there was a dose-dependent increase in light output at all concentrations of luminol tested.

HRP Type VIA [2] = molecular target: T2, HRP Type VIA (Armoracia rusticana, UniProt P00433)
T2 sequence (P00433 31-338): T1 sequence (P00433 31-338)

[3] = molecular target: T1, horseradish peroxidase Type VIA; assay: Enhanced chemiluminescent assay for peroxide with 4-biphenylboronic acid (Example 8a); assay type: biochemical; conditions: 10µl enhancer (1:20 dilution of 1mg/ml)
Method: The assay reagent consisted of the following reagents: 10µl 4-biphenylboronic acid (1:20 dilution of a 1mg/ml stock in DMSO), 10µl horseradish peroxidase (1:500,000 dilution of a 1mg/ml stock Type VIA in 0.1 mol/l Tris buffer pH 8.6) and 100µl luminol (0.025 g/l in 0.1 mol/l Tris buffer pH 8.6). These were mixed together and the light emission measured. A 10µl sample of a hydrogen peroxide solution (dilutions of a stock, 31µl 30% w/v hydrogen peroxide/ml in Tris buffer) was added, the contents of the assay tube mixed and the light emission recorded.
From Table 9 it can be seen that there was a dose-dependent increase in light output up to 2.4µmoles of peroxide.

HRP Type VIA [4] = molecular target: T2, HRP Type VIA; assay: Effect of organoboron compounds on the luminol-hydrogen peroxide-HRP chemiluminescent reaction (Example 2); assay type: biochemical, horseradish; design: purchased Sigma Chemical Co; conditions: test
Method: The stock solution of HRP Type VIA (1mg/ml) and luminol-hydrogen peroxide reagent were prepared as described previously. Luminol-hydrogen peroxide (100µl, 1:10 dilution) was mixed with either 10µl of HRP (1:50,000 dilution) or, 10µl of Tris buffer (0.1mol/l, pH 8.6). […] A control without any test compound was run in parallel.
The control consisted of buffer in place of the compound under test as an enhancer. […]

HRP = molecular target: T3, HRP (Armoracia rusticana, UniProt P00433); assay: PIBA enhancement of the HRP-luminol-peroxide reaction (Example 7); assay type: biochemical, horseradish; conditions: for Signal: Background ratio: at 1 minute
T3 construct: purchased Sigma Chemical Co
T3 sequence (P00433 31-338): T1 sequence (P00433 31-338)
Method: PBBA was added in various concentrations (range 0.05µg to 0.5µg) to a luminol-H2O2 reaction in the presence and absence of HRP. The luminol-hydrogen peroxide reagent was prepared as follows: sodium luminol (12.5mg) was dissolved in 50ml of Tris buffer (0.1mol/l, pH 8.6), and 15.5µl of hydrogen peroxide (30% w/v) was mixed with 0.5ml of Tris buffer (0.lmol/l, pH 8.6). These two solutions were combined and protected from light. The luminol-hydrogen peroxide reagent (100µl of a 1:10 dilution) was added to a cuvette together with either 10µl of HRP Type VI A (HRP, Sigma Chemical Co., 1:50,000 dilution) or as a control 10µl of Tris Buffer (0.1mol/l, pH 8.6), and various amounts of PBBA (Aldrich Chemical Co.), range 0.05µg-0.5µg in 0.1mol/l Tris, pH 8.6). […]
The experiment of Example 1 was repeated using PIBA in place of PBBA. Various dilutions of PIBA (Cookson Chemicals Ltd., Southampton, UK, 1mg/ml stock in DMSO) in Tris buffer were used. […]

Molecule: OB(O)c1ccc(-c2ccccc2)cc1 [Compound 1011, 4-biphenylboronic acid]
- Light emission at 10 minutes ([1]; Luminol 0 µmoles): 54
- Light emission at 10 minutes ([1]; Luminol 0.00125 µmoles): 145
- Light emission at 10 minutes ([1]; Luminol 0.0125 µmoles): 620
- Light emission at 10 minutes ([1]; Luminol 0.125 µmoles): 5,161
- Light emission at 10 minutes ([1]; Luminol 1.25 µmoles): 55,873
- Light emission at 10 minutes ([1]; Luminol 12.5 µmoles): 358,184
- Light emission at 10 minutes ([1]; Luminol 125 µmoles): 834,089
- (a) Decrease in background (without HRP with test cpd.) (HRP Type VIA [2]): Y
- (b) Increase in signal (with HRP, with test cpd.) (HRP Type VIA [2]): Y
- (c) Increase in signal: background ratio (HRP Type VIA [2]): Y (key: Column (c) shows whether there was an increase in the signal:background ratio by over 25% of the control value (Y = yes; N = no)
- Light emission at 5 minutes ([3]; Hydrogen peroxide 0 µmoles): 525
- Light emission at 5 minutes ([3]; Hydrogen peroxide 0.00024 µmoles): 659
- Light emission at 5 minutes ([3]; Hydrogen peroxide 0.0024 µmoles): 1,500
- Light emission at 5 minutes ([3]; Hydrogen peroxide 0.024 µmoles): 40,682
- Light emission at 5 minutes ([3]; Hydrogen peroxide 0.24 µmoles): 584,638
- Light emission at 5 minutes ([3]; Hydrogen peroxide 2.4 µmoles): 620,551
- Light emission at 5 minutes ([3]; Hydrogen peroxide 24 µmoles): 339,291

Molecule: OB(O)c1ccc(Cl)cc1Cl [Compound 5002, 2,4-dichlorophenylboronic acid]
- Signal (no HRP) (HRP Type VIA [4]; 5µl of 1mg/ml compound): 16,246
- Signal (with HRP) (HRP Type VIA [4]; 5µl of 1mg/ml compound): 128,274
- Signal: Background ratio (HRP Type VIA [4]; 5µl of 1mg/ml compound): 7.9

Molecule: OB(O)c1ccccc1 [Compound 5004, phenylboronic acid]
- Signal (no HRP) (HRP Type VIA [4]; 5µl of 1mg/ml compound): 5,601
- Signal (with HRP) (HRP Type VIA [4]; 5µl of 1mg/ml compound): 54,554
- Signal: Background ratio (HRP Type VIA [4]; 5µl of 1mg/ml compound): 9.7

The remaining lines, values ahead:

- Light emission at 1 minute, Background (HRP; PIBA 0.01 µg): 12,862
- Light emission at 1 minute, Signal (HRP; PIBA 0.01 µg): 78,419
- Signal: Background ratio (HRP; PIBA 0.01 µg): 6.1
- Light emission at 1 minute, Background (HRP; PIBA 0.1 µg): 13,221
- Light emission at 1 minute, Signal (HRP; PIBA 0.1 µg): 74,487
- Signal: Background ratio (HRP; PIBA 0.1 µg): 7.1
- Light emission at 1 minute, Background (HRP; PIBA 1 µg): 10,282
- Light emission at 1 minute, Signal (HRP; PIBA 1 µg): 324,312
- Signal: Background ratio (HRP; PIBA 1 µg): 31.5
- Light emission at 1 minute, Background (HRP; PIBA 10 µg): 5,517
- Light emission at 1 minute, Signal (HRP; PIBA 10 µg): 540,760
- Signal: Background ratio (HRP; PIBA 10 µg): 98
- Light emission at 1 minute, Background (HRP; PIBA 20 µg): 3,837
- Light emission at 1 minute, Signal (HRP; PIBA 20 µg): 135,065
- Signal: Background ratio (HRP; PIBA 20 µg): 35.2
Molecule: OB(O)c1ccc(I)cc1 [PIBA, para-iodophenylboronic acid]

- Signal (no HRP) (HRP Type VIA [4]; 40µl of 1mg/ml compound): 54,389
- Signal (with HRP) (HRP Type VIA [4]; 40µl of 1mg/ml compound): 65,197
- Signal: Background ratio (HRP Type VIA [4]; 40µl of 1mg/ml compound): 1.2
Molecule: butaneborinic acid [Compound 5005]

From EP0626016B1, “[…] […]” (BRITISH TECHNOLOGY GROUP LIMITED, priority 1992, dated 1993)
